This note sets out measurements from patent publication US20140357487A1, “PLANTS HAVING INCREASED TOLERANCE TO HERBICIDES” (BASF SE, priority 2011, published 2014).

Test [1] concerns transgenic Arabidopsis plants overexpressing Barley HPPD (Seq ID: 2). In words: Arabidopsis growth inhibition in 48-well plates, line overexpressing Barley HPPD. The class given is in vivo, Arabidopsis thaliana. The settings on record: Barley (Seq ID: 2) overexpression line; plant growth IC50 of transgenic divided by that of wildtype plants. The source says:
Various methods for the production of stably transformed plants are well known in the art. Coumarone-derivative herbicide tolerant soybean (Glycine max) or corn (Zea mays) plants can be produced by a method described by Olhoft et al. (US patent 2009/0049567). Briefly, HPPD or HST encoding polynucleotides are cloned into a binary vector using standard cloning techniques as described by Sambrook et al. (Molecular cloning (2001) Cold Spring Harbor Laboratory Press). The final vector construct contains an HPPD or HST encoding sequence flanked by a promoter sequence (e.g. the ubiquitin promoter (PcUbi) sequence) and a terminator sequence (e.g. the nopaline synthase terminator (NOS) sequence) and a resistance marker gene cassette (e.g. AHAS) (FIG. 2). Optionally, the HPPD or HST gene can provide the means of selection. Agrobacterium-mediated transformation is used to introduce the DNA into soybean's axillary meristem cells at the primary node of seedling explants. After inoculation and co-cultivation with Agrobacteria, the explants are transferred to shoot induction medium without selection for one week. […]
Depending on the species, the plants are kept at 10-25° C. or 20-35° C. […] During this time, the plants are tended and their response to the individual treatments is evaluated. […] Tolerance to coumarone-derivative herbicides can also be assessed in Arabidopsis. […]

In a further test the test system is Sorghum HPPD. The experiment in a line: HPPD activity assay, Sorghum HPPD. It is filed as biochemical. The conditions noted are these: normalized on Arabidopsis wild-type HPPD. On the procedure:
HPPD produces homogentisic acid and CO2 from 4-hydroxyphenylpyruvate (4-HPP) and O2. The activity assay for HPPD is based on the analysis of homogentisic acid by reversed phase HPLC.
The assay mixture can contain 150 mM potassium phosphate buffer pH 7.0, 50 mM L-ascorbic acid, 1 μM FeSO4 and 7 μg of purified enzyme in a total volume of 1 ml.
Inhibitors are dissolved in DMSO (dimethylsulfoxide) to a concentration of 20 mM or 0.5 mM, respectively. From this stock solution serial five-fold dilutions are prepared in DMSO, which are used in the assay. The respective inhibitor solution accounts for 1% of the assay volume. Thus, final inhibitor concentrations range from 200 μM to 2.5 nM or from 5 μM to 63 pM, respectively. After a preincubation of 30 min the reaction is started by adding 4-HPP to a final concentration of 0.1 mM. The reaction is allowed to proceed for 120 min at room temperature. The reaction is stopped by addition of 100 μl of 4.5 M phosphoric acid.
Activities are normalized by setting the uninhibited enzyme activity to 100%. IC50 values are calculated using non-linear regression.
The assay mixture can contain 150 mM potassium phosphate buffer pH 7.0, 50 mM L-ascorbic acid, 100 μM Catalase (Sigma-Aldrich), 1 μM FeSO4 and 0.2 units of purified HPPD enzyme in a total volume of 505 μl. […]
Inhibitors are dissolved in DMSO (dimethylsulfoxide) to a concentration of 0.5 mM. […] IC50 values are calculated using non-linear regression.
Using methods which are described in the above examples or well known in the art, purified, recombinant wildtype HPPD enzymes are characterized with respect to their kinetic properties and sensitivity towards HPPD inhibiting herbicides. Apparent michaelis constants (Km) and maximal reaction velocities (Vmax) are calculated by non-linear regression with the software GraphPad Prism 5 (GraphPad Software, La Jolla, USA) using a substrate inhibition model. […] Weighted means (by standard error) of Km and […] values are calculated from at least three independent experiments. […]

`CC1(C)c2cccnc2C(O)=C(c2ccc(Cl)nc2Cl)S1(=O)=O` [Inhibitor 2, 7-(2,6-dichloro-3-pyridyl)-5,5-dimethyl-6,6-dioxo-thiopyrano[4,3-b]pyridin-8-ol] had a Tolerance factor in test [1] of 3. In addition, in the test on Sorghum HPPD, the “Normalized tolerance index TI” value was determined as 1.2.

The compound `CC1=NOC(c2c(Cl)ccc(C3=C(O)c4ncccc4C(C)(C)S3(=O)=O)c2Cl)C1` (stereo not shown) [Inhibitor 1, 7-[2,4-dichloro-3-(3-methyl-4,5-dihydroisoxazol-5-yl)phenyl]-5,5-dimethyl-6,6-dioxo-thiopyrano[4,3-b]pyridin-8-ol] gave a Tolerance factor in test [1] of 10. Further, in the test on Sorghum HPPD, the “Normalized tolerance index TI” value is 2.1.
